Several values for one entry are separate records, joined by “and”; a condition that tells them apart may be missing. Equal entries are not always repeated.
How the values were obtained:
[1] = biological target: T1, αvβ5 integrin (Homo sapiens, UniProt P06756+P18084); experiment: ELISA: biotinylated vitronectin binding to captured soluble αvβ5-mFc in the presence of RGD peptides
T1 construct: chimeras comprising the extracellular domain of αvβ3, αvβ5, α5β1, and αIIbβ3 linked to the Fc domain of either mouse IgG; purchased Celltech plc (supplied, no catalogue number); host or cells: unpurified hybridoma / tissue culture supernatant from secreting cells
T1 sequence (P06756 31-992 limits assumed): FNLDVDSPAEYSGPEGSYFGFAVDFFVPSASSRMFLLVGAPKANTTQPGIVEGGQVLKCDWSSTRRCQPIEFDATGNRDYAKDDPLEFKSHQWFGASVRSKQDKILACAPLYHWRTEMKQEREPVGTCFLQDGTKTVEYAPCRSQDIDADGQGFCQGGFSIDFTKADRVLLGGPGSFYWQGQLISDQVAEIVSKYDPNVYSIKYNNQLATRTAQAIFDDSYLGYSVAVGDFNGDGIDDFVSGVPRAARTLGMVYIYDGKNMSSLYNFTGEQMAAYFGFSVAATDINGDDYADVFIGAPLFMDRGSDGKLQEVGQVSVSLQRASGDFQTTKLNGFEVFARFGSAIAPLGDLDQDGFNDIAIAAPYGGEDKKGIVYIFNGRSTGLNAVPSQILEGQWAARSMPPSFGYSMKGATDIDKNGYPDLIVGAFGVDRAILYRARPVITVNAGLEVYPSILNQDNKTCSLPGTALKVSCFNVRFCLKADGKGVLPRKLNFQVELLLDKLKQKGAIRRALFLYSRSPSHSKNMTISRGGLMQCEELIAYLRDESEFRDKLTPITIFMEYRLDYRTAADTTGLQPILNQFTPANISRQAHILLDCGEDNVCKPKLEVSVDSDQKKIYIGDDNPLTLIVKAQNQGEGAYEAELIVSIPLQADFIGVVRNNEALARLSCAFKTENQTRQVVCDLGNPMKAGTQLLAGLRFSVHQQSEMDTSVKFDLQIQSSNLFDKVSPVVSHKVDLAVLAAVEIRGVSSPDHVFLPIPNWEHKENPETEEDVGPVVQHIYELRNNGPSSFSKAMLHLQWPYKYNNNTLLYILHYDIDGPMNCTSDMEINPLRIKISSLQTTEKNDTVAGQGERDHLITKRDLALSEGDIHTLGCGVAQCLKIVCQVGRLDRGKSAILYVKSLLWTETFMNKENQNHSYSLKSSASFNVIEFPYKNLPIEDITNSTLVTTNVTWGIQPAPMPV
T1 sequence (P18084 24-719 limits assumed): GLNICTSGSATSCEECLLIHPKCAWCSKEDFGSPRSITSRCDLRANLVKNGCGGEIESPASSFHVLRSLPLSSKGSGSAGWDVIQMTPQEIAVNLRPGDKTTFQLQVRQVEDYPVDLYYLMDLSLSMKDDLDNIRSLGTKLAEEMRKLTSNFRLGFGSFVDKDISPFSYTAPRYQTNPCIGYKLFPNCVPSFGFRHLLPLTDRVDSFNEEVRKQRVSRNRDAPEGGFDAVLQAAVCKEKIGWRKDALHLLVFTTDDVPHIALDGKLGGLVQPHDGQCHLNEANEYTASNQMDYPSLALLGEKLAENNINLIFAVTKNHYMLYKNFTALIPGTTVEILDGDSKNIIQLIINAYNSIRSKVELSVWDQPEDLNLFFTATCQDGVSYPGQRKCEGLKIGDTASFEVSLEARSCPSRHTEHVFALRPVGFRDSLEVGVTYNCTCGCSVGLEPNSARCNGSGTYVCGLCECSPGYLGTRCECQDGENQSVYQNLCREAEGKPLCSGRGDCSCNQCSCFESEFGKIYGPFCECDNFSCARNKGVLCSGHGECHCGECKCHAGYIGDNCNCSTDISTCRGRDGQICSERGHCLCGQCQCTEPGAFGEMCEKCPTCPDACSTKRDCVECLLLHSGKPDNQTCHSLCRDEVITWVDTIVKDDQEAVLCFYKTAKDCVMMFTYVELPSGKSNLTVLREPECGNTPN
Text: (§1) Four different soluble integrins were supplied by Celltech plc. Soluble forms of αvβ3, αvβ5, α5β1, and αIIbβ3 integrin were generated by constructing chimeras comprising the extracellular domain of αvβ3, αvβ5, α5β1, and αIIbβ3 linked to the Fc domain of either mouse IgG (αvβ3-mFc, αvβ5-mFc, and αIIbβ3-mFc) or human IgG (α5β1-hFc) as described by Stephens et al., Cell Adhes. Commun., 7:377-390 (2000) and Coe et al., J. Biol. Chem., 276:35854-35866 (2001). Since the four soluble integrin chimeras were supplied either as purified proteins (αvβ3-mFc and α5β1-hFc) or as unpurified hybridoma supernatants (αIIbβ3-mFc and αvβ5-mFc), it was necessary to use two types of ELISAs. […] In one type of ELISA (FIGS. 2A and 2B), the immobilized component is a 50 kDa fragment of fibronectin. In the second type of ELISA (FIGS. 2C and 2D), the immobilized component is a goat anti-mFc antibody that is used to capture chimeric proteins so that the RGD binding site of the integrin is maximally exposed. Each three-sided box in FIG. 2 represents a single well of a 96-well plate, and the components are listed in the sequence of their addition to the assay. The immobilized component at the bottom of the well is bound to the well by electrostatic interactions.
To analyze the affinity and selectively of RGD peptides for αIIbβ3 and αvβ5, 96-well ELISA plates were coated with anti-murine Fc antibody at 5 μg/ml in PBS, 100 μl per well and left overnight at 4° C. The plates were washed with PBS using a Denley Wellwash 4 Mk 2. Washing was repeated twice with a 400 μl wash per well. 200 μl/well of blocking buffer was then added for 1 hour followed by a repeat washing with PBS. 100 μl of tissue culture supernatant from cells secreting soluble αIIbβ3-mFc or αvβ5-mFc, diluted 1:2 in conjugate buffer, was added to each well. Plates were incubated with shaking for 1 hour followed by two washes with PBS. 100 μl of an RGD peptide (at concentrations of 200, 20, and 2 μM), followed by either 100 μl of biotinylated fibrinogen (at 1 μg/ml in conjugate buffer) or 100 μl of biotinylated vitronectin (at 2 μg/ml in conjugate buffer) were added to each well and incubated for 2 hours with shaking. After incubation, the plates were washed with PBS as described above. 100 μl of neutravidin-peroxidase was added to each well and the plates were incubated for 30 minutes with shaking, followed by two washes with PBS. 100 μl of TMB substrate was added to each well and the plates were shaken during color development. Plates were read using a plate spectrophotometer at 630 nm.
(§2) Two negative and two positive controls were used in both types of ELISAs. For example, the negative controls were wells that contained 50 μl of an active control peptide, integrin, and biotinylated ligand or 50 μl of the active control peptide and 50 μl of buffer. These negative control wells typically develop little to no color. […] These wells typically develop the maximum amount of color.
(§3) FIGS. 3-6 illustrate the percent binding of the vitronectin, fibronectin, or fibrinogen ligand to αvβ5, α5β1, αIIbβ3, or αvβ3 integrin in the presence of RGD peptides (i.e., linear (A), cyclic (B), or 4-[^19F]-fluorobenzoyl cyclic (C)) at different concentrations, with 100% maximum signal being the signal obtained in the absence of the peptide.

[2] = biological target: T2, αvβ3 integrin (Homo sapiens, UniProt P05106+P06756); experiment: ELISA: soluble αvβ3-mFc binding to immobilized 50 kDa fibronectin fragment in the presence of RGD peptides
T2 construct: chimeras comprising the extracellular domain of αvβ3, αvβ5, α5β1, and αIIbβ3 linked to the Fc domain of either mouse IgG; purchased Celltech plc (supplied, no catalogue number)
T2 sequence (P06756 31-992 limits assumed): as the sequence (P06756 31-992 limits assumed) above
T2 sequence (P05106 27-718 limits assumed): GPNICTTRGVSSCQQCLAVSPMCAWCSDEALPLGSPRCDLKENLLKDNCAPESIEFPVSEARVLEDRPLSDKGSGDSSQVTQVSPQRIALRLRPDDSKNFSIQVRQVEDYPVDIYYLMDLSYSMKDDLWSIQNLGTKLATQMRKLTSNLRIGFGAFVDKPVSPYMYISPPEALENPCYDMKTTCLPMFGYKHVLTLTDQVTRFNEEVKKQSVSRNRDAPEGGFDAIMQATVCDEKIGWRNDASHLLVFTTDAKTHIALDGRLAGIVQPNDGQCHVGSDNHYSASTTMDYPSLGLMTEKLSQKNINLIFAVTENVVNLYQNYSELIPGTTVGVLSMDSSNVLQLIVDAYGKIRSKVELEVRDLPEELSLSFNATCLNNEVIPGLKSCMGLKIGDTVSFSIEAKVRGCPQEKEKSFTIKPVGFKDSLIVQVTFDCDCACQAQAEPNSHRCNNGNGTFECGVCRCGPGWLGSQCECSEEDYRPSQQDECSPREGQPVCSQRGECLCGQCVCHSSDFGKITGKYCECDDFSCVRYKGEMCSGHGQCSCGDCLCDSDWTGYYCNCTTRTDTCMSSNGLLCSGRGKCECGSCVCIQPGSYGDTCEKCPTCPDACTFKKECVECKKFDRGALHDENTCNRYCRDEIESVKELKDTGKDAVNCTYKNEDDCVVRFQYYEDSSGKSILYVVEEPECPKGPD
Text: as §1
The plates were washed with PBS using a Denley Wellwash 4 Mk 2. Washing was repeated twice with a 400 μl wash per well. […] Plates were read using a plate spectrophotometer at 630 nm.
(§4) Two negative and two positive controls were used in both types of ELISAs.
as §3

[3] = biological target: T3, α5β1 integrin (Homo sapiens, UniProt P05556+P08648); experiment: ELISA: soluble α5β1-hFc binding to immobilized 50 kDa fibronectin fragment in the presence of RGD peptides
T3 construct: chimeras comprising the extracellular domain of αvβ3, αvβ5, α5β1, and αIIbβ3 linked to the Fc domain of either mouse IgG; purchased Celltech plc (supplied, no catalogue number)
T3 sequence (P08648 42-995 limits assumed): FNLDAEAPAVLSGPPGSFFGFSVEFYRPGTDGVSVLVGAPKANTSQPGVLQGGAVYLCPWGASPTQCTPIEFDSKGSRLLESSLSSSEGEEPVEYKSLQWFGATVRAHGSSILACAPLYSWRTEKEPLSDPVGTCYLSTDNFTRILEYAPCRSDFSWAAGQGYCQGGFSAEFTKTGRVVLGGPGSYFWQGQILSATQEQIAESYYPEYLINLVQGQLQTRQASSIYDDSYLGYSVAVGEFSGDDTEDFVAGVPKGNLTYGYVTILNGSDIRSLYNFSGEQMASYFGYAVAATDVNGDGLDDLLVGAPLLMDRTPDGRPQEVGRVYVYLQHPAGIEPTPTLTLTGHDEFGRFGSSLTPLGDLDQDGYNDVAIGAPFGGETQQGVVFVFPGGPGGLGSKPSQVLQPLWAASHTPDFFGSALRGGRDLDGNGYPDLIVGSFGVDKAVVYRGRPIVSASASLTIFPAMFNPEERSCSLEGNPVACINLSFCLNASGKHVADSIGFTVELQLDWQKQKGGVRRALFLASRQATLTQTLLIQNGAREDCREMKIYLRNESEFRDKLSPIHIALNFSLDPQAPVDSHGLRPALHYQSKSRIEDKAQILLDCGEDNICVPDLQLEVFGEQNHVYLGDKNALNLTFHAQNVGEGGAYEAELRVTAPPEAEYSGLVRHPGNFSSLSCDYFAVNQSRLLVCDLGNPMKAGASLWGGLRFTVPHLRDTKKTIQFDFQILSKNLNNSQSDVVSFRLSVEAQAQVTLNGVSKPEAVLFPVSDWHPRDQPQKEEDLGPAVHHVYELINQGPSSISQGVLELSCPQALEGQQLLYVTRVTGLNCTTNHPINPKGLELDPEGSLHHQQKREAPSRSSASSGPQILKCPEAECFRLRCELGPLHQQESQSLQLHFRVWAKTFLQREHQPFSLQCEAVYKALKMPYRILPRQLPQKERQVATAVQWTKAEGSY
T3 sequence (P05556 21-728 limits assumed): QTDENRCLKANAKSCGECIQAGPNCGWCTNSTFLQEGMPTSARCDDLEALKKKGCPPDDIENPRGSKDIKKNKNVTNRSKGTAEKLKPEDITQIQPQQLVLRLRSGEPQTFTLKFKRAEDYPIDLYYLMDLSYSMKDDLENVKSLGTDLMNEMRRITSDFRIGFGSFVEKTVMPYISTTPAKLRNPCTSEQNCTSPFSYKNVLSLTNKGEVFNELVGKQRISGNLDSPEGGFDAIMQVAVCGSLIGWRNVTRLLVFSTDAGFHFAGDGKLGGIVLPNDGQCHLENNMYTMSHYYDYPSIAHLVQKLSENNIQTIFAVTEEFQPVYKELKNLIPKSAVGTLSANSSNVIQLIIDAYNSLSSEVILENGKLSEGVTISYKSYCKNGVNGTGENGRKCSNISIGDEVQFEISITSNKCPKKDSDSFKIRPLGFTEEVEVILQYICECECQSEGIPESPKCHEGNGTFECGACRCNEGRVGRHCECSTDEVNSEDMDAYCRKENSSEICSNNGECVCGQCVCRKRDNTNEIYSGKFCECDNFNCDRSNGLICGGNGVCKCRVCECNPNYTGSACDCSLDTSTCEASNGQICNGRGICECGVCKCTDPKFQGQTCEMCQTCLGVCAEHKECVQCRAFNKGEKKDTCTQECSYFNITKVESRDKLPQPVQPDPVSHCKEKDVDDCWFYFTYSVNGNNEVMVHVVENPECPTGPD
Text: as §1
To analyze the affinity and selectively of RGD peptides for αvβ3 and α5β1, 96-well ELISA plates were coated with 100 μl of a 5 μg/ml of the 50 kDa fragment of fibronectin in PBS per well and left overnight at 4° C. The plates were washed with PBS using a Denley Wellwash 4 Mk 2. Washing was repeated twice with a 400 μl wash per well. 200 μ/well of blocking buffer (i.e., to prevent non-specific binding of proteins) was then added for 1 hour followed by a repeat washing with PBS. RGD peptides were then added at a maximum concentration of 200 μM and a preliminary screen was performed at three concentrations, 200,20, and 2 μM. 100 μl of an RGD peptide was added to each well and each assay was performed in triplicate. Purified soluble αvβ3-mFc or purified α5β1-hFc was diluted to 2 μg/ml and 15 ng/ml, respectively, in conjugate buffer and 100 μl was added to each well. The plates were incubated for 2 hours with shaking using a Luckham R100 Rotatest at approximately 150 rpm. After incubation, the plates were washed with PBS as previously described and a labeled antibody was added. For the αvβ3 assay, a horseradish peroxidase (HRP)-labeled F(ab′)2 fragment of goat anti-mouse IgG Fc was diluted 1:2000 in conjugate buffer and 100 μl was added to each well. For the α5β1 assay, an HRP-labeled F(ab′)2 fragment of goat anti-human IgG Fc was diluted 1:2000 in conjugate buffer and 100 μl was added to each well. Plates were incubated for 30 minutes with shaking followed by 2 washes with PBS. 100 μl of TMB substrate was added to each well and plates were shaken during a 10 minute color development. Plates were read using a plate spectrophotometer at 630 nm.
as §2, §3

[4] = biological target: T4, αIIbβ3 integrin (Homo sapiens, UniProt P05106+P08514); experiment: ELISA: biotinylated fibrinogen binding to captured soluble αIIbβ3-mFc in the presence of RGD peptides
T4 construct: chimeras comprising the extracellular domain of αvβ3, αvβ5, α5β1, and αIIbβ3 linked to the Fc domain of either mouse IgG; purchased Celltech plc (supplied, no catalogue number); host or cells: unpurified hybridoma / tissue culture supernatant from secreting cells
Text: as §1
The plates were washed with PBS using a Denley Wellwash 4 Mk 2. Washing was repeated twice with a 400 μl wash per well. 200 μl/well of blocking buffer was then added for 1 hour followed by a repeat washing with PBS. 100 μl of tissue culture supernatant from cells secreting soluble αIIbβ3-mFc or αvβ5-mFc, diluted 1:2 in conjugate buffer, was added to each well. […] After incubation, the plates were washed with PBS as described above. 100 μl of neutravidin-peroxidase was added to each well and the plates were incubated for 30 minutes with shaking, followed by two washes with PBS. 100 μl of TMB substrate was added to each well and the plates were shaken during color development. Plates were read using a plate spectrophotometer at 630 nm.
as §4, §3

[5] = test system: VUP melanoma cell line; experiment: Adhesion assay: [51Cr]-VUP cells to vitronectin; assay type: cell-based; conditions: 20 μM peptide
Description: (§5) RGD peptides were plated at a maximum concentration of 200 μM and a minimum concentration of 2 nM. For each RGD peptide sequence, linear peptides (A), cyclic peptides (B), and 4-[^19F]-fluorobenzoyl cyclic peptides (C) were assayed. Each RGD peptide concentration was performed in quadruplicate and each experiment was repeated twice.
(§6) Plastic 96-well plates (Falcon 3912; Becton Dickinson) were coated with 50 μl substrate (10 μg/ml laminin or 5 μg/ml vitronectin). The plates were incubated at 37° C. in an 8% CO2 atmosphere for 1 hour. Unbound protein was flicked off and the plates were washed with phosphate buffered saline (PBS) and blocked with bovine serum albumin (0.1% w/v BSA)/PBS/0.1% sodium azide) for 1 hour. The plates were then washed with PBS, placed on a bed of ice and 25 μl of peptide was added to the wells.
(§7) Sodium [^51Cr] chromate was purchased from Amersham International, UK. […]
(§8) 25 μl (about 10,000 cells) were added to each quadruplicate well and the plates incubated at 37° C. in an 8% CO2 atmosphere for 1 hour. […] The radioactivity associated with each well was determined in a gamma counter (1261 Multigamma; Wallac, Sweden). Quadruplicate 25 μl samples of labeled cells were counted as 100% input values. To determine non-specific binding, the ability of cells to bind BSA-coated wells was also assessed. […]
(§9) The results were calculated as follows: [formula] […]

[6] = test system: VUP melanoma cell line; experiment: Adhesion assay: [51Cr]-VUP cells to laminin; assay type: cell-based
Description: as §5, §6
(§10) Sodium [^51Cr] chromate was purchased from Amersham International, UK. The solution was made isotonic by the addition of 110 μl 10× Hanks buffered salt solution. 100 μl of this solution (3.7 MBq) was added to 5-10×10^6 cells in 500 μl of serum-containing growth medium. The suspension was incubated at 37° C. for 45 minutes with regular agitation to resuspend the cells. The cells were then washed and spun 3 times with serum-free E4 medium to remove any free [^51Cr]chromium. A trypan blue viability count was performed and the cells were diluted to the necessary volume in serum-free E4 medium (4×10^5 cells/ml).
25 μl (about 10,000 cells) were added to each quadruplicate well and the plates incubated at 37° C. in an 8% CO2 atmosphere for 1 hour. Unbound cells were flicked off and the plates were washed twice with PBS/BSA containing 1 mM CaCl2 and 0.5 mM MgCl2. The plates were dabbed dry and cut into individual wells. The radioactivity associated with each well was determined in a gamma counter (1261 Multigamma; Wallac, Sweden). Quadruplicate 25 μl samples of labeled cells were counted as 100% input values. To determine non-specific binding, the ability of cells to bind BSA-coated wells was also assessed. […]
as §9

[7] = test system: A375M melanoma cell line; experiment: Adhesion assay: [51Cr]-A375M cells to vitronectin; assay type: cell-based, human; conditions: 20 μM peptide
Description: as §5, §6, §7, §8, §9

[8] = test system: A375M melanoma cell line; experiment: Adhesion assay: [51Cr]-A375M cells to laminin; assay type: cell-based, human
Description: as §5, §6, §10
25 μl (about 10,000 cells) were added to each quadruplicate well and the plates incubated at 37° C. in an 8% CO2 atmosphere for 1 hour. Unbound cells were flicked off and the plates were washed twice with PBS/BSA containing 1 mM CaCl2 and 0.5 mM MgCl2. The plates were dabbed dry and cut into individual wells. The radioactivity associated with each well was determined in a gamma counter (1261 Multigamma; Wallac, Sweden). Quadruplicate 25 μl samples of labeled cells were counted as 100% input values. To determine non-specific binding, the ability of cells to bind BSA-coated wells was also assessed. Data for these wells are referred to as background.
The results were calculated as follows: [formula] [formula] NMR Spectroscopy of RGD Peptides
The A375M and VUP melanoma cell lines were used with vitronectin and laminin as substrates. Peptides were titrated in 10-fold dilutions from 200 μM to 2 nM. All data were normalized to the absence of peptide, which corresponded to 100% adhesion. All titrations were performed in quadruplicate and each experiment was repeated at least twice.

[9] = Table 2, no unit printed (b200 gives same values in μM)
[10] = preliminary screen 2, 20, 200 μM
[11] = control peptide, concentration not given

N=C(N)NCCC[C@@H]1NC(=O)[C@H](CCCCNC(=O)c2ccc(F)cc2)NC(=O)[C@@H](Cc2ccccc2)NC(=O)[C@H](CC(=O)O)NC(=O)CNC1=O [C10]
IC50 ([1]; Table 2, no unit printed (b200 gives same values in μM), read-out: Mean IC50, αvβ5): 6.01 µM | IC50 [2, 9]: 0.018 µM | IC50 ([3]; Table 2, no unit printed (b200 gives same values in μM), read-out: Mean IC50, α5β1): 1.37 µM | fibrinogen binding to αIIbβ3 ([4]; 200 nM peptide): 42.1% | fibrinogen binding to αIIbβ3, % of the maximum signal ([4]; 2 μM peptide): 21.9% | IC50 [4, 9]: 1.23 µM

H-KPQVTRGDVFTEG-NH2 [A11, linear peptide, reference compound]
effect on the binding of vitronectin to αvβ5 [1, 10]: no effect | effect on fibronectin binding to αvβ3 ([2]; 2 μM): little effect | fibronectin binding to αvβ3, % of the maximum signal ([2]; 20 μM peptide): 58.7% | effect on the binding of fibronectin to α5β1 [3, 10]: no effect | effect on the binding of fibrinogen to αIIbβ3 ([4]; 20 μM): significant effect

RGDY(OMe)K [A7]
effect on αvβ5 binding to vitronectin ([1]; 2 μM and 20 μM): little effect | effect on α5β1 binding to fibronectin ([3]; 2 μM and 20 μM): little effect | adhesion of [51Cr]-VUP cells to vitronectin, normalized to absence of peptide (100%) [5]: 78.65%±3.98% | adhesion of [51Cr]-VUP cells to laminin, normalized to absence of peptide (100%) ([6]; highest concentration (200 μM)): 64.17%±1.31% | adhesion of [51Cr]-A375M cells to vitronectin, normalized to absence of peptide (100%) [7]: 106.99±1.66% | adhesion of [51Cr]-A375M cells to laminin, normalized to absence of peptide (100%) ([8]; 200 μM peptide): 75.08%±1.53%

GRGDSP [reference compound]
adhesion of [51Cr]-VUP cells to laminin, normalized to absence of peptide (100%) [6, 11]: 49.29%±2.74% and 43.05%±7.66% | adhesion of [51Cr]-A375M cells to laminin, normalized to absence of peptide (100%) ([8]; 200 μM peptide): 13.51%±1.25% | adhesion of [51Cr]-A375M cells to laminin, normalized to absence of peptide (100%) [8, 11]: 62.05%±1.88%

Reference: patent US20060029544A1, “Receptor-binding cyclic peptides and methods of use” (The Regents of the University of California Office of …, priority 2004, published 2006)
